Measured values from patent US10307357B2, “Prebiotic oral care compositions containing an alkyl glycoside” (COLGATE-PALMOLIVE COMPANY, priority 2013, dated 2019).

Legend:
Test in all cases: Phenotype microarray metabolic activity
Format in all cases: cell-based
Details in all cases: control = 1
Actinomyces naeslundii = tested on: Actinomyces naeslundii
Protocol: (§1) The extent of metabolic activity of the tested bacteria in the presence of the above-mentioned glycosides after 24 hours and 48 hours was investigated through a high throughput phenotype microarray system (PM) for microbial cells (Biolog Inc.). Each PM can contain up to 95 different biochemical compounds (e.g. glycosides) that may act as substrates for bacteria as well as one negative control, not containing the substrates. Microarray plates were used in which the different wells of each plate were pre-loaded (by the manufacturer, Biolog Inc.) with different glycosides to be tested. Each bacterial species was tested using a separate microarray plate. Thus, a single bacterial species was tested with a variety of glycosides on each particular plate. The microarrays are based on redox technology, using cell respiration as a universal reporter. Active cell respiration results in the reduction of a tetrazolium dye and in the formation of a strong color—for example, when using the tetrazolium dye “Biolog Redox Dye Mix D”, the color changes from transparent/colorless to purple when the dye is reduced. The observation of this color change indicates which of the substrates improve the metabolic activity and health of the cells. Each bacterial species was collected from blood agar plates (incubated for 48 hours anaerobically at 37° C.) and transferred to an IF-0 Base inoculation fluid (Biolog Inc.), which is a nutritionally poor medium. The resulting cell suspension was adjusted to a transmittance of 42% (relative to the transmittance of the base inoculation fluid with no bacterial species present) at 492 nm using a BioRad SmartSpec 3000 Photometer (the adjustment being effected by adding either further inoculation fluid or further bacteria until the transmittance of 42% was achieved). A 1:5 dilution of this suspension was prepared by mixing 3 mL of the 42% transmittance cell suspension with […] of an inoculation fluid (which inoculation fluid was formed by mixing 11.6 mL sterile water, 62.5 mL IF-0 base inoculation fluid and 0.9 mL of the tetrazolium dye “Biolog Redox Dye mix D”), resulting in a final cell density which was equal to 85% transmittance using a BioRad SmartSpec 3000 Photometer. For each of the glycosides tested, the microarray plate (obtained from the supplier (Biolog Inc.) with glycosides already present in the relevant wells in powder form) was directly inoculated with 100 μL/well of this 85% transmittance cell suspension. All plates were incubated in an anaerobic atmosphere at 37° C. Color changes were measured spectrophotometrically at 492 nm (Thermo Scientific Multiskan Ascent) at 24 hrs and 48 hrs using the same plate at both time points. […] After 24 hrs and 48 hrs under continuous shaking in a Multiscan microplate reader, the optical density (OD) of the synthetic medium at 24 hours and 48 hours was measured (using the microplate reader) at a wavelength of 492 nm for each combination of bacterium/glycoside, and for each of their respective controls (i.e. which contained the particular bacterium but no glycosides). […] The experiment was carried out three times for each combination of bacterium with glycosides, with each repeat being carried out on a different day (thus providing three biological replicas). The controls were also carried out three times, as above. The values shown are the average (mean) of the three single values obtained (as detailed above) for each combination of bacterium with glycosides, at 24 hrs and at 48 hrs.

Actinomyces viscosus = tested on: Actinomyces viscosus
Protocol: as §1

[1] = tested on: Aggregatibacter actinomycetemcomitans
Protocol: as §1

Capnocytophaga sputigena = tested on: Capnocytophaga sputigena
Protocol: as §1

Fusobacterium nucleatum = tested on: Fusobacterium nucleatum
Protocol: as §1

Porphyromonas gingivalis = tested on: Porphyromonas gingivalis
Protocol: as §1

Prevotella intermedia = tested on: Prevotella intermedia
Protocol: as §1

Streptococcus gordonii = tested on: Streptococcus gordonii
Protocol: as §1

Streptococcus mitis = tested on: Streptococcus mitis
Protocol: as §1

Streptococcus mutans = tested on: Streptococcus mutans
Protocol: as §1

Streptococcus salivarius = tested on: Streptococcus salivarius
Protocol: as §1

Streptococcus sanguinis = tested on: Streptococcus sanguinis
Protocol: as §1

Streptococcus sobrinus = tested on: Streptococcus sobrinus
Protocol: as §1

Tannerella forsythia = tested on: Tannerella forsythia
Protocol: as §1

Veillonella parvula = tested on: Veillonella parvula
Protocol: as §1

SMILES	OD 492 nm divided by control (metabolic activity) (Actinomyces naeslundii; 24 hrs)	OD 492 nm divided by control (metabolic activity) (Actinomyces naeslundii; 48 hrs)	OD 492 nm divided by control (metabolic activity) (Actinomyces viscosus; 24 hrs)	OD 492 nm divided by control (metabolic activity) (Actinomyces viscosus; 48 hrs)	OD 492 nm divided by control (metabolic activity) ([1]; 24 hrs)	OD 492 nm divided by control (metabolic activity) ([1]; 48 hrs)	OD 492 nm divided by control (metabolic activity) (Capnocytophaga sputigena; 24 hrs)	OD 492 nm divided by control (metabolic activity) (Capnocytophaga sputigena; 48 hrs)	OD 492 nm divided by control (metabolic activity) (Fusobacterium nucleatum; 24 hrs)	OD 492 nm divided by control (metabolic activity) (Fusobacterium nucleatum; 48 hrs)	OD 492 nm divided by control (metabolic activity) (Porphyromonas gingivalis; 24 hrs)	OD 492 nm divided by control (metabolic activity) (Porphyromonas gingivalis; 48 hrs)	OD 492 nm divided by control (metabolic activity) (Prevotella intermedia; 24 hrs)	OD 492 nm divided by control (metabolic activity) (Prevotella intermedia; 48 hrs)	OD 492 nm divided by control (metabolic activity) (Streptococcus gordonii; 24 hrs)	OD 492 nm divided by control (metabolic activity) (Streptococcus gordonii; 48 hrs)	OD 492 nm divided by control (metabolic activity) (Streptococcus mitis; 24 hrs)	OD 492 nm divided by control (metabolic activity) (Streptococcus mitis; 48 hrs)	OD 492 nm divided by control (metabolic activity) (Streptococcus mutans; 24 hrs)	OD 492 nm divided by control (metabolic activity) (Streptococcus mutans; 48 hrs)	other results
CO[C@H]1O[C@H](CO)[C@H](O)[C@H](O)[C@H]1O [α-methyl-D-galactoside]	2.1644	2.8156	2.4728	3.3823	0.8204	0.7697	0.5747	0.8435	0.8949	0.8204	0.8079	0.8180	0.9609	0.9269	0.8960	0.8401	1.3498	1.3555	1.0573	0.9904	OD 492 nm divided by control (metabolic activity) (Streptococcus salivarius; 24 hrs): 0.9677; OD 492 nm divided by control (metabolic activity) (Streptococcus salivarius; 48 hrs): 0.8829; OD 492 nm divided by control (metabolic activity) (Streptococcus sanguinis; 24 hrs): 1.0198; OD 492 nm divided by control (metabolic activity) (Streptococcus sanguinis; 48 hrs): 1.1007; OD 492 nm divided by control (metabolic activity) (Streptococcus sobrinus; 24 hrs): 1.0761; OD 492 nm divided by control (metabolic activity) (Streptococcus sobrinus; 48 hrs): 0.9730; OD 492 nm divided by control (metabolic activity) (Tannerella forsythia; 24 hrs): 1.0380; OD 492 nm divided by control (metabolic activity) (Tannerella forsythia; 48 hrs): 1.1302; OD 492 nm divided by control (metabolic activity) (Veillonella parvula; 24 hrs): 0.9782; OD 492 nm divided by control (metabolic activity) (Veillonella parvula; 48 hrs): 1.2054
CO[C@@H]1O[C@H](CO)[C@H](O)[C@H](O)[C@H]1O [β-methyl-D-galactoside]	1.5393	1.9886	2.8391	3.9827	0.8310	0.7733	1.0421	1.0860	0.9051	0.7899	1.1297	1.8212	1.0543	1.0046	1.4834	1.8026	1.0977	0.9864	1.1594	1.0780	OD 492 nm divided by control (metabolic activity) (Streptococcus salivarius; 24 hrs): 6.9837; OD 492 nm divided by control (metabolic activity) (Streptococcus salivarius; 48 hrs): 6.4661; OD 492 nm divided by control (metabolic activity) (Streptococcus sanguinis; 24 hrs): 1.0434; OD 492 nm divided by control (metabolic activity) (Streptococcus sanguinis; 48 hrs): 1.0609; OD 492 nm divided by control (metabolic activity) (Streptococcus sobrinus; 24 hrs): 1.3078; OD 492 nm divided by control (metabolic activity) (Streptococcus sobrinus; 48 hrs): 1.3002; OD 492 nm divided by control (metabolic activity) (Tannerella forsythia; 24 hrs): 1.2183; OD 492 nm divided by control (metabolic activity) (Tannerella forsythia; 48 hrs): 1.8850; OD 492 nm divided by control (metabolic activity) (Veillonella parvula; 24 hrs): 0.8103; OD 492 nm divided by control (metabolic activity) (Veillonella parvula; 48 hrs): 0.6840
